Measurements: US6552070B2, “Health food useful for preventing liver and biliary dysfunctions containing an alkanoyl L-carnitine and Silybum marianum extract” (Sigma-Tau HealthScience S.p.A., priority 2000, dated 2003)

Assays:
[1] = system: galactosamine-induced liver intoxication; assay: Protection against hepatotoxic effects induced by galactosamine in the rat; assay type: in vivo
Method: In these tests the method adopted was that described by Reuter (Reuter W., Trends in the Therapy of Liver Diseases Proceeding, Ed. A. Bertelli, pp. 121, 1974, Karger Basel 1975).
Rats weighing approximately 250 g received daily oral administrations for two days consecutively of 200 mg/kg of isovaleryl L-carnitine or 200 mg/kg of propionyl L-carnitine or 100 mg/kg of silymarin or a combination of these compounds at the same doses. After 24 hours, the same rats were administered 400 mg/kg i.p. of galactosamine. After a further 24 hours, blood samples taken from the animals were used to determine both glutamic-oxalacetic […] (GOT) and the bilirubin present in plasma, according to the method described by Keppler (Keppler D., Exp. Mol. Pathol, 9, 279, 1968).

rat liver cells = assay: Protection against CCl4 toxicity on isolated liver cell cultures; details: CCl4 100 mg L^−1; for Concentration of AlaAT in supernatant of liver cells exposed to CCl4 / Concentration of AspAT in supernatant of liver cells exposed to CCl4: I 100 mg L^−1, P 100 mg L^−1, S 50 mg L^−1; for Inhibition of toxic and lipoperoxidative effects caused by CCl4 on liver cell cultures (in words): summary of Tables 1 and 2
[2] = rat plasma 24 hours after galactosamine 400 mg/kg i.p., oral pretreatment two days, alkanoyl L-carnitine 200 mg/kg, silymarin 100 mg/kg

## CC(C)CC(=O)O[C@H](CC(=O)[O-])C[N+](C)(C)C [Isovaleryl L-carnitine, isovaleryl L-carnitine]
[1]; rat
  Protective effect against galactosamine-induced liver intoxication (in words): protective activity
[1]; [2]
  Bilirubin: 0.15 ± 0.04
  GOT: 215 ± 30.5
[1]; rat, 24 hours after galactosamine 400 mg/kg i.p., oral pretreatment two days, alkanoyl L-carnitine 200 mg/kg, silymarin 100 mg/kg
  GluDH: 64 ± 6.8
Rat liver cells; 4 hours
  Concentration of AlaAT in supernatant of liver cells exposed to CCl4: 19.4 ± 2.4 nmol/min/L
  Concentration of AspAT in supernatant of liver cells exposed to CCl4: 6.9 ± 1.1 nmol/min/L
Rat liver cells; 8 hours
  Concentration of AlaAT in supernatant of liver cells exposed to CCl4: 16.7 ± 3.1 nmol/min/L
  Concentration of AspAT in supernatant of liver cells exposed to CCl4: 6.2 ± 0.9 nmol/min/L
Rat liver cells; 16 hours
  Concentration of AlaAT in supernatant of liver cells exposed to CCl4: 15.6 ± 2.7 nmol/min/L
  Concentration of AspAT in supernatant of liver cells exposed to CCl4: 5.5 ± 1.2 nmol/min/L
Rat liver cells
  Inhibition of toxic and lipoperoxidative effects caused by CCl4 on liver cell cultures (in words): partly inhibiting

## CCC(=O)O[C@H](CC(=O)[O-])C[N+](C)(C)C [Propionyl L-carnitine, propionyl L-carnitine]
[1]; rat, oral pretreatment, galactosamine 400 mg/kg i.p.
  Enzyme activity (GOT) and bilirubin after galactosamine (in words): reduced
Rat liver cells; 4 hours
  Concentration of AlaAT in supernatant of liver cells exposed to CCl4: 22.3 ± 4.1 nmol/min/L
  Concentration of AspAT in supernatant of liver cells exposed to CCl4: 7.5 ± 0.9 nmol/min/L
Rat liver cells; 8 hours
  Concentration of AlaAT in supernatant of liver cells exposed to CCl4: 18.4 ± 2.3 nmol/min/L
  Concentration of AspAT in supernatant of liver cells exposed to CCl4: 5.5 ± 1.2 nmol/min/L
Rat liver cells; 16 hours
  Concentration of AlaAT in supernatant of liver cells exposed to CCl4: 16.6 ± 1.9 nmol/min/L
  Concentration of AspAT in supernatant of liver cells exposed to CCl4: 5.2 ± 1.4 nmol/min/L
Rat liver cells
  Inhibition of toxic and lipoperoxidative effects caused by CCl4 on liver cell cultures (in words): partly inhibiting
